Consider one molecule from US7446102B2, “Antibacterial amide macrocycles IV” (priority 2004, dated 2008).

Where a name gives a salt, the structure may show the parent alone.

The assay deals with S. aureus 133 translation. Nature of the assay: S. aureus in vitro transcription-translation assay (firefly luciferase, S30 extract). It is filed as biochemical. The settings on record: 50% inhibition of the translation of firefly luciferase. From the text:
In Vitro Transcription-Translation with S. aureus Extracts
Construction of an S. aureus Luciferase Reporter Plasmid
For the construction of a reporter plasmid which can be used in an in vitro transcription-translation assay from S. aureus the plasmid pBESTluc (Promega Corporation, USA) is used. The E. coli tac promoter present in this plasmid in front of the firefly luciferase is replaced by the capA1 promoter with appropriate Shine-Dalgarno sequence from S. aureus. The primers CAPFor 5′-[…] […] […]-3′ and CAPRev 5′-[…]-3′ are used for this. The primer CAPFor contains the capA1 promoter, the ribosome binding site and the 5′ region of the luciferase gene. After PCR using pBESTluc as template it is possible to isolate a PCR product which contains the firefly luciferase gene with the fused capA1 promoter. This is, after restriction with ClaI and HindIII, ligated into the vector pBESTluc which has likewise been digested with ClaI and HindIII. The resulting plasmid p1a is able to replicate in E. coli and be used as template in the S. aureus in vitro transcription-translation assay.
Preparation of S30 Extracts from S. aureus
Six liters of BHI medium are inoculated with a 250 ml overnight culture of an S. aureus strain and allowed to grow at 37° C. until the OD600 nm is 2-4. The cells are harvested by centrifugation and washed in 500 ml of cold buffer A (10 mM Tris acetate, pH 8.0, 14 mM magnesium acetate, 1 mM DTT, 1 M KCl). After renewed centrifugation, the cells are washed in 250 ml of cold buffer A with 50 mM KCl, and the resulting pellets are frozen at −20° C. for 60 min. The pellets are thawed on ice in 30 to 60 min and taken up in buffer B (10 mM Tris acetate, pH 8.0, 20 mM magnesium acetate, 1 mM DTT, 50 mM KCl) up to a total volume of 99 ml. 1.5 ml portions of lysostaphin (0.8 mg/ml) in buffer B are introduced into 3 precooled centrifuge cups and each is mixed with 33 ml of the cell suspension. The samples are incubated at 37° C., shaking occasionally, for 45 to 60 min, before 150 μl of a 0.5 M DTT solution are added. The lysed cells are centrifuged at 30 000×g and 4° C. for 30 min. The cell pellet is taken up in buffer B and then centrifuged again under the same conditions, and the collected supernatants are combined. The supernatants are centrifuged again under the same conditions, and 0.25 volumes of buffer C (670 mM Tris acetate, pH 8.0, 20 mM magnesium acetate, 7 mM Na3 phosphoenolpyruvate, 7 mM DTT, 5.5 mM ATP, 70 μM amino acids (complete from Promega), 75 μg of pyruvate kinase (Sigma, Germany))/ml are added to the upper ⅔ of the supernatant. The samples are incubated at 37° C. for 30 min. The supernatants are dialysed against 21 of dialysis buffer (10 mM Tris acetate, pH 8.0, 14 mM magnesium acetate, 1 mM DTT, 60 mM potassium acetate) in a dialysis tube with a 3500 Da cut-off with one buffer change at 4° C. overnight. The dialysate is concentrated to a protein concentration of about 10 mg/ml by covering the dialysis tube with cold PEG 8000 powder (Sigma, Germany) at 4° C. The S30 extracts can be stored in aliquots at −70° C.
Determination of the IC50 in the S. aureus In Vitro Transcription-Translation Assay
Inhibition of protein biosynthesis of the compounds can be shown in an in vitro transcription-translation assay. The assay is based on the cell-free transcription and translation of firefly luciferase using the reporter plasmid p1a as template and cell-free S30 extracts obtained from S. aureus. The activity of the resulting luciferase can be detected by luminescence measurement.
The amount of S30 extract or plasmid p1a respectively to be employed must be tested anew for each preparation in order to ensure an optimal concentration in the assay. 3 μl of the substance to be tested, dissolved in 5% DMSO, are introduced into an MTP. Then 10 μl of a suitably concentrated plasmid solution p1a are added. […]

Regarding `NC[C@H](O)C[C@@H]1NC(=O)[C@@H](N)Cc2cc(ccc2O)-c2ccc(O)c(c2)C[C@@H](C(=O)O)NC1=O` [Example 20A, 14(S)-Amino-11(S)-(3-amino-2(R)-hydroxypropyl)-5,17-dihydroxy-10,13-dioxo-9,12-diazatricyclo[14.3.1.1^2,6]henicosa-1(19),2,4,6(21),16(20),17-hexaene-8(S)-carboxylic acid dihydrochloride, reference compound], the IC50 – broadly, the concentration that gives 50% inhibition – stood at 1500 nM.
